Experiments:
miR-155 = assay: Ribonuclease activity assay, cleavage of miR-155; type: biochemical; settings: miRNA 1 µM, DC 20 µM, 37 °C
Method: (§1) The ribonuclease activity of DCs was studied under two different buffer conditions: buffer (1) contained 50 mM Tris-HCl, pH 7.0, 200 mM KCl, 1 mM EDTA, which imitates intracellular conditions (e.g., pH and potassium ions concentration) and was used in a number of studies previously; and buffer (2) contained 20 mM Tris-HCl, pH 7.8, 40 mM KCl, 8 mM MgCl2, 1 mM DTT, 0.02 mg/mL BSA, which is recommended for in vitro reactions with RNase H (Figure 3 and Figure 4).
(§2) Figure 3 Kinetics of cleavage of 5′-[^32P]-labeled miR-17, miR-18a, miR-155, miR-21 and miR-21_1 by corresponding DCs in the buffer (1), containing 50 mM Tris-HCl, pH 7.0, 200 mM KCl and 1 mM EDTA. (a–e) Radioautographs of 18% denaturing PAAG showing the cleavage products of miR-17, miR-18a, miR-155, miR-21 and miR-21_1, respectively. miRNA (1 µM) and corresponding DC (20 µM) were incubated at 37 °C for 72 h. Lanes Im and T1—imidazole ladder and partial RNA digestion with RNase T1, respectively; control–miRNA was incubated in the absence of the conjugate. The incubation time (in hours) is show at the top. SS gap–single-stranded region of miRNA formed upon hybridization with DC; (f) Kinetics of miRNAs cleavage by DCs depending on the incubation time. Data are presented as mean ± s.e.
(§3) Figure 4 Kinetics of cleavage of 5′-[^32P]-labeled miR-17, miR-18a, miR-155, miR-21, and miR-21_1 by corresponding DCs in the buffer (2), containing 20 mM Tris-HCl, pH 7.8, 40 mM KCl, 8 mM MgCl2, 1 mM DTT, 0.02 mg/mL BSA. (a–e) Radioautographs of 18% denaturing PAAG showing the cleavage products of miR-17, miR-18a, miR-155, miR-21 and miR-21_1, respectively. miRNA (1 µM) and corresponding DC (20 µM) were incubated at 37 °C for 72 h. Lanes Im and T1–imidazole ladder and partial RNA digestion with RNase T1, respectively; control–miRNA was incubated in the absence of the conjugate. The incubation time (in hours) is shown at the top. SS gap–single-stranded region of miRNA formed upon hybridization with DC; (f) Kinetics of miRNAs cleavage by DCs. Data are presented as mean ± s.e.
(§4) The reaction mixture (10 µL) contained 800 cpm (Cherenkov’s counting) of [^32P]-miRNA, 1 μM unlabeled miRNA, one of the conjugates at a concentration 10 or 20 μM and one of the buffers: 50 mM Tris-HCl, pH 7.0, 200 mM KCl, 1 mM EDTA–buffer (1) or 20 mM Tris-HCl, pH 7.8, 40 mM KCl, 8 mM MgCl2, 1 mM DTT, 0.02 mg/mL BSA–buffer (2). The mixture was incubated at 37 °C for 0–72 h and quenched by precipitation of RNA with 2% LiClO4 in acetone (90 µL). RNA was collected by centrifugation and dissolved in loading buffer (8 M urea, 0.025% bromophenol blue, 0.025% xylene cyanol). RNA cleavage products were analyzed in 18% PAAG/8M urea using TBE (100 mM Tris-borate, pH 8.3, 2 mM EDTA) as running buffer. To identify cleavage sites, an imidazole and T1-ladders produced by partial RNA cleavage with 2 M imidazole buffer (pH 7.0) and with RNase T1 [68], respectively, were run in parallel. To obtain quantitative data, gels were dried and analyzed using Molecular Imager FX. The total extent of RNA cleavage and the extent of RNA cleavage at each individual site were determined by using Quantity One software v.4.1 (Bio-Rad, Hercules, CA, USA).

miR-21 = assay: Ribonuclease activity assay, cleavage of miR-21; type: biochemical; settings: buffer (2) 20 mM Tris-HCl pH 7.8, 40 mM KCl, 8 mM MgCl2, 1 mM DTT, 0.02 mg/mL BSA, miRNA 1 µM, DC 20 µM, 37 °C
Method: as §1, §2, §3, §4

Substance	Total Cleavage (miR-155; buffer (1) 50 mM Tris-HCl pH 7.0, 200 mM KCl, 1 mM EDTA, 2 h) [%]	Total Cleavage (miR-155; buffer (1) 50 mM Tris-HCl pH 7.0, 200 mM KCl, 1 mM EDTA, 6 h) [%]	Total Cleavage (miR-155; buffer (1) 50 mM Tris-HCl pH 7.0, 200 mM KCl, 1 mM EDTA, 24 h)	Total Cleavage (miR-155; buffer (1) 50 mM Tris-HCl pH 7.0, 200 mM KCl, 1 mM EDTA, 48 h) [%]	Total Cleavage (miR-155; buffer (1) 50 mM Tris-HCl pH 7.0, 200 mM KCl, 1 mM EDTA, 72 h) [%]	Total Cleavage (miR-155; buffer (2) 20 mM Tris-HCl pH 7.8, 40 mM KCl, 8 mM MgCl2, 1 mM DTT, 0.02 mg/mL BSA, 2 h) [%]	Total Cleavage (miR-155; buffer (2) 20 mM Tris-HCl pH 7.8, 40 mM KCl, 8 mM MgCl2, 1 mM DTT, 0.02 mg/mL BSA, 6 h) [%]	Total Cleavage (miR-155; buffer (2) 20 mM Tris-HCl pH 7.8, 40 mM KCl, 8 mM MgCl2, 1 mM DTT, 0.02 mg/mL BSA, 24 h) [%]	Total Cleavage (miR-155; buffer (2) 20 mM Tris-HCl pH 7.8, 40 mM KCl, 8 mM MgCl2, 1 mM DTT, 0.02 mg/mL BSA, 48 h) [%]	Total Cleavage (miR-155; buffer (2) 20 mM Tris-HCl pH 7.8, 40 mM KCl, 8 mM MgCl2, 1 mM DTT, 0.02 mg/mL BSA, 72 h) [%]	rise of Kobs in buffer (2) compared to Kobs in buffer (1) (miR-155) [fold]	Total Cleavage (miR-21; 2 h) [%]	Total Cleavage (miR-21; 6 h) [%]	Total Cleavage (miR-21; 24 h) [%]	Total Cleavage (miR-21; 48 h) [%]	Total Cleavage (miR-21; 72 h) [%]
ACCCCTAT–linker 1–[GRLRL]2–linker 2–TTAGCATTAA [miRNA-155-DC, Dual oligonucleotide-peptide conjugate targeted to miR-155: catalytic peptide [LRLRG]2 between two 2-aminoadenine-containing oligodeoxyribonucleotides]	0	0	0,5%	16	21	15	41	56	57	72	6					
TCAACATC–linker 1–[GRLRL]2–linker 2–GATAAGCTA [miRNA-21-DC, Dual oligonucleotide-peptide conjugate targeted to miR-21: catalytic peptide [LRLRG]2 between two 2-aminoadenine-containing oligodeoxyribonucleotides]												4	13	30	30	34

— article PMC7287882, “Dual miRNases for Triple Incision of miRNA Target: Design Concept and Catalytic Performance” (Molecules, 2020)
